According to US5599808A, “Aqueous indolocarbazole solutions” (Cephalon, Inc., priority 1995, dated 1997):
≈ marks a conversion by molar mass, not a printed value.

Assays:
[1] = test system: protein kinase; conditions: Berg et al. J. Biol. Chem. 267:13-16 (1992); cited from earlier work
[2] = Concentration of dissolved indolocarbazole obtained in aqueous solutions (HPLC); conditions: organic solvent or mixture
Method: In general, a solution of the concentrate can be prepared by combining a dispersant such as polyvinylpyrrolidone C-30 and a selected organic solvent such as propylene glycol into a beaker. The mixture is continuously stirred until completely dissolved. Solid PVP or other solution components may take 1-2 hours to dissolve completely at room temperature.
An amount of an indolocarbazole, for example, staurosporine, K-252a, or any one of indolocarbazole A, B, or C (Table 1) can each be individually weighed and added to a small aliquot of the aqueous solution, resulting in a 10 mg/ml solution after the indolocarbazole completely dissolves. Alternatively, a mixture of indolocarbazoles may be combined, weighed, and added to a small aliquot of the aqueous solution resulting in a 10 mg/ml solution after the indolocarbazole completely dissolves. An indolocarbazole solution can be stirred or shaken vigorously overnight. Any undissolved indolocarbazole is removed by standard centrifugation or filtration techniques. The concentration of solubilized indolocarbazole can be determined by reversed phase HPLC using a UV detector (290 nm).
The following HPLC conditions are used to determine the concentration of an indolocarbazole:
HPLC Column: Zorbax Rx C-18 4.6×250 mm, 5 micron particle size
Prior to injection of an indolocarbazole solution, there is allowed a 10 minute equilibration time.
Fifty g of PEG-400 were added to 50 ml of water and the mixture vigorously stirred until completely dissolved. One mg of either K-252a, staurosporine or the indolocarbazoles B or C (see Table 1) were added individually to a 100 μl aliquot of the PEG-400 solution and the resulting mixture was shaken overnight. The solution was clarified by centrifugation at 1000 rpm for 10 minutes. The supernatant was saved and any residue discarded. Ten μl of the supernatant was removed, diluted with DMSO (100:1) and the concentration of dissolved K-252a determined by HPLC.
Same as example 1 except that PEG-600 was used instead of PEG-400.
Same as example 1 except that PEG-1000 was used instead of PEG-400.
Same as example 1 except that 48 ml of water was used and 2 g of benzyl alcohol was added to the PEG-400 solution.
Same as example 2 except that 48 ml of water was used and 2 g of benzyl alcohol was added to the PEG-600 solution.
Same as example 3 except that 48 ml of water was used and 2 g of benzyl alcohol was added to the PEG-1000 solution.
2.5 g of benzyl alcohol was added to 47.5 g of PEG-400 and, in a separate container, 2.5 g of Pluronic F68 was added to 47.5 ml of water. Each solution was stirred until completely dissolved, then each solution was combined and stirred until homogeneous. One mg of K-252a was added to 100 μl of the solution and the resulting mixture was shaken overnight. The solution was clarified by centrifugation at 1000 rpm for 10 minutes. Ten (10) μl of supernatant was removed, diluted with DMSO (100:1), and the concentration of dissolved K-252a determined by HPLC.
Same as example 7 except that Pluronic™ L61 was used instead of Pluronic™ F68.
Same as example 7 except that Pluronic™ L64 was used instead of Pluronic™ F68.
Same as example 7 except that Tween™ 20 was used instead of Pluronic™ F68.
Same as example 7 except that Tween™ 80 was used instead of Pluronic™ F68.
Same as example 7 except that PVP was used instead of Pluronic™ F68 and PEG-300 was used instead of PEG-400.
Same as example 12 except that PEG-400 was used instead of PEG-300 and indolocarbazoles A, B or C were each solubilized individually in addition to K-252a.
Same as example 12 except that PEG-600 was used instead of PEG-300 and indolocarbazoles A, B or C were each solubilized individually in addition to K-252
Same as example 12 except that PEG-1000 was used instead of PEG-300.
Ten (10) g of Triton X-100 was added to 38 ml of water and the mixture was stirred thoroughly.

[3] = cited from earlier work

COC(=O)C1(O)CC2OC1(C)n1c3ccccc3c3c4c(c5c6ccccc6n2c5c31)C(=O)NC4 (centres unmarked) [Compound K-252a]
modulation of neurotrophin responses by affecting protein kinase activity [1]: modulate neurotrophin responses | solubility thermodynamic ([2]; 50% peg 400, 50% h2o, Concentration Obtained, Example 1: 50% PEG 400, 50% H2O, target 10 mg/ml): 1390 µg/mL (≈ 2.97 mM) | solubility thermodynamic ([2]; 50% peg 600, 50% h2o, Concentration Obtained, Example 2: 50% PEG 600, 50% H2O, target 10 mg/ml): 1920 µg/mL (≈ 4.11 mM) | solubility thermodynamic ([2]; 50% peg 1000, 50% h2o, Concentration Obtained, Example 3: 50% PEG 1000, 50% H2O, target 10 mg/ml): 1820 µg/mL (≈ 3.89 mM) | solubility thermodynamic ([2]; peg 300/ba/pvp/h2o, Concentration Obtained, Example 12: 47.5% PEG 300, 2.5% BA, 2.5% PVP, 47.5% H2O, target 10 mg/ml): 9600 µg/mL (≈ 20.5 mM) | solubility thermodynamic ([2]; peg 400/ba/h2o, Concentration Obtained, Example 4: 50% PEG 400, 2% BA, 48% H2O, target 10 mg/ml): 2080 µg/mL (≈ 4.45 mM) | solubility thermodynamic ([2]; peg 400/ba/pluronic f68/h2o, Concentration Obtained, Example 7: 47.5% PEG 400, 2.5% BA, 2.5% Pluronic F68, 47.5% H2O, target 10 mg/ml): 5500 µg/mL (≈ 11.8 mM) | solubility thermodynamic ([2]; peg 400/ba/pluronic l61/h2o, Concentration Obtained, Example 8: 47.5% PEG 400, 2.5% BA, 2.5% Pluronic L61, 47.5% H2O, target 10 mg/ml): 3500 µg/mL (≈ 7.49 mM) | solubility thermodynamic ([2]; peg 400/ba/pluronic l64/h2o, Concentration Obtained, Example 9: 47.5% PEG 400, 2.5% BA, 2.5% Pluronic L64, 47.5% H2O, target 10 mg/ml): 1800 µg/mL (≈ 3.85 mM) | solubility thermodynamic ([2]; peg 400/ba/pvp/h2o, Concentration Obtained, Example 13: 47.5% PEG 400, 2.5% BA, 2.5% PVP, 47.5% H2O, target 10 mg/ml): 10000 µg/mL (≈ 21.4 mM) | solubility thermodynamic ([2]; peg 400/ba/tween 20/h2o, Concentration Obtained, Example 10: 47.5% PEG 400, 2.5% BA, 2.5% Tween 20, 47.5% H2O, target 10 mg/ml): 6000 µg/mL (≈ 12.8 mM) | solubility thermodynamic ([2]; peg 400/ba/tween 80/h2o, Concentration Obtained, Example 11: 47.5% PEG 400, 2.5% BA, 2.5% Tween 80, 47.5% H2O, target 10 mg/ml): 3700 µg/mL (≈ 7.91 mM) | solubility thermodynamic ([2]; peg 600/ba/h2o, Concentration Obtained, Example 5: 50% PEG 600, 2% BA, 48% H2O, target 10 mg/ml): 2720 µg/mL (≈ 5.82 mM) | solubility thermodynamic ([2]; peg 600/ba/pvp/h2o, Concentration Obtained (saturation level), Example 20: 47.5% PEG 600, 2.5% BA, 2.5% PVP, 47.5% H2O, 10 mg added): 10000 µg/mL (≈ 21.4 mM) | solubility thermodynamic ([2]; peg 600/ba/pvp/h2o, Concentration Obtained (saturation level), Example 22: 50% PEG 600, 2% BA, 10% PVP, 38% H2O, 10 mg added): 21200 µg/mL (≈ 45.3 mM) | solubility thermodynamic ([2]; peg 600/ba/pvp/h2o, Concentration Obtained, Example 14: 47.5% PEG 600, 2.5% BA, 2.5% PVP, 47.5% H2O, target 10 mg/ml): 10000 µg/mL (≈ 21.4 mM) | solubility thermodynamic ([2]; peg 600/ba/pvp/h2o, Concentration Obtained, Example 18: 50% PEG 600, 2% BA, 10% PVP, 38% H2O, target 10 mg/ml): 10000 µg/mL (≈ 21.4 mM) | solubility thermodynamic ([2]; peg 600/ba/triton x-100/h2o, Concentration Obtained, Example 16: 50% PEG 600, 2% BA, 10% Triton X-100, 38% H2O, target 10 mg/ml): 10000 µg/mL (≈ 21.4 mM) | solubility thermodynamic ([2]; peg 600/ba/tween 80/h2o, Concentration Obtained, Example 17: 50% PEG 600, 2% BA, 10% Tween 80, 38% H2O, target 10 mg/ml): 8830 µg/mL (≈ 18.9 mM) | solubility thermodynamic ([2]; peg 1000/ba/h2o, Concentration Obtained, Example 6: 50% PEG 1000, 2% BA, 48% H2O, target 10 mg/ml): 1830 µg/mL (≈ 3.91 mM) | solubility thermodynamic ([2]; peg 1000/ba/pvp/h2o, Concentration Obtained (saturation level), Example 21: 47.5% PEG 1000, 2.5% BA, 2.5% PVP, 47.5% H2O, 10 mg added): 14100 µg/mL (≈ 30.2 mM) | solubility thermodynamic ([2]; peg 1000/ba/pvp/h2o, Concentration Obtained, Example 15: 47.5% PEG 1000, 2.5% BA, 2.5% PVP, 47.5% H2O, target 10 mg/ml): 10000 µg/mL (≈ 21.4 mM) | solubility thermodynamic ([2]; peg 1000/ba/pvp/h2o, Concentration Obtained, Example 19: 40% PEG 1000, 2% BA, 10% PVP, 48% H2O, target 10 mg/ml): 10000 µg/mL (≈ 21.4 mM) | insolubility in water ([3]; Nakanishi et al.): insolubility | solubility in non-aqueous, toxic solvents ([3]; non-aqueous, toxic solvents): soluble in non-aqueous, toxic solvents | solubility in water ([3]; water): insoluble in water
